Measured values reported in ChEMBL document CHEMBL5113482, “Discovery of fused benzimidazole-imidazole autophagic flux inhibitors for treatment of triple-negative breast cancer” (Eur J Med Chem, 2022).
Calls of active or inactive are those of the source. No cut-off for these calls is given here.

Key:
MDA-MB-231 [1] = experiment: Inhibition of colony formation in human MDA-MB-231 cells at 5 to 20 umol/l pretreated for 48 hrs followed by replacement of fresh medium and measured after 15 days by crystal violet staining based assay; format: functional, cell-based; settings: dose 5-20 µmol/L
Nibrin (Homo sapiens) [2] = target: T1, Nibrin (Homo sapiens) (UniProt O60934); experiment: Activation of NBS1 phosphorylation in human MDA-MB-231 cells at 5 to 20 uM measured after 6 to 48 hrs by Western blot analysis; format: cell-based; settings: filed as activator, dose 5-20 µM, time 6-48 hrs
T1 sequence (whole entry): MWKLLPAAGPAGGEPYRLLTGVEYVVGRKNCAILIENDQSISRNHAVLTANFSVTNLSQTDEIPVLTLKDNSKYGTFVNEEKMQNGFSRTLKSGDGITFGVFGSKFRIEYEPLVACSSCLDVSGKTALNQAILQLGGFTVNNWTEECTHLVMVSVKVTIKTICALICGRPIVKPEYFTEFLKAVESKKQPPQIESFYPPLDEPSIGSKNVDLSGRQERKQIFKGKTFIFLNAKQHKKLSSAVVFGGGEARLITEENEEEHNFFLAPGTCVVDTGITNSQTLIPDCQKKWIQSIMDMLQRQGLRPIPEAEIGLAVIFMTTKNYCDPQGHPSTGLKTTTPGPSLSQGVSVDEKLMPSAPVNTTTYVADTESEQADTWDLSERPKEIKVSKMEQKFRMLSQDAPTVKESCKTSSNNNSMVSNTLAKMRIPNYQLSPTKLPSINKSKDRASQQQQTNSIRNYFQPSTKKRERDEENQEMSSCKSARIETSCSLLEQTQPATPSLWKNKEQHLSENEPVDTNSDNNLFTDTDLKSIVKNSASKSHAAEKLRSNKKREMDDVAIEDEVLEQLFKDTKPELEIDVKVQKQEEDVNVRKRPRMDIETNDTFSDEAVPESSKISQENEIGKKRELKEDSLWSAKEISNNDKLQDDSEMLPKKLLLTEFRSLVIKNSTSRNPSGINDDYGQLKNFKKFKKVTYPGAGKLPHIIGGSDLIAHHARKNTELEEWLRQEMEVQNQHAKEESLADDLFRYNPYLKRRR

MDA-MB-468 [3] = experiment: Cell cycle arrest in human MDA-MB-468 cells assessed as reduction in CDK2 expression measured after 48 hrs by Western blot analysis; format: functional, cell-based; settings: dose 5-20 µM, DDE = dose-dependent effect
MDA-MB-231 [4] = experiment: Induction of apoptosis in human MDA-MB-231 cells assessed as increase in Bim expression measured after 48 hrs by Western blot analysis; format: functional, cell-based; settings: dose 5-20 µM, DDE = dose-dependent effect
MDA-MB-468 [5] = experiment: Induction of mitochondrial membrane potential loss in human MDA-MB-468 cells at 20 uM measured after 48 hrs by JC-1 staining based assay relative to control; format: functional
MDA-MB-231 [6] = experiment: Cell cycle arrest in human MDA-MB-231 cells assessed as reduction in cyclin A expression measured after 48 hrs by Western blot analysis; format: functional, cell-based; settings: dose 5-20 µM, DDE = dose-dependent effect
MDA-MB-231 [7] = experiment: Antitumor activity against human MDA-MB-231 cells xenografted in ip dosed NOD/SCID mouse assessed as upregulation of LC3B-II expression administered at 3 days interval for 24 days and measured on day 25 by Western blot analysis; format: functional, organism-based; settings: dose 5-15 mg/kg, time 25.0 day, DDE = dose-dependent effect
MDA-MB-468 [8] = experiment: Induction of apoptosis in human MDA-MB-468 cells assessed as increase in cleaved caspase-3 expression measured after 48 hrs by Western blot analysis; format: functional, cell-based; settings: dose 5-20 µM, DDE = dose-dependent effect
MDA-MB-231 [9] = experiment: Antitumor activity against human MDA-MB-231 cells xenografted in NOD/SCID mouse assessed as reduction in Ki67 expression at 5 to 15 mg/kg, ip administered at 3 days interval for 24 days and measured on day 25 by immunohistochemical analysis; format: functional, organism-based; settings: dose 5-15 mg/kg, time 25.0 day
MDA-MB-468 [10] = experiment: Induction of DNA damage in human MDA-MB-468 cells assessed as increase in gamma-H2AX accumulation measured after 48 hrs by immunofluorescence analysis; format: functional, cell-based
MDA-MB-468 [11] = experiment: Induction of apoptosis in human MDA-MB-468 cells assessed as increase in cytochrome c expression measured after 48 hrs by Western blot analysis; format: functional, cell-based; settings: dose 5-20 µM, DDE = dose-dependent effect
MDA-MB-231 [12] = experiment: Antitumor activity against human MDA-MB-231 cells xenografted in ip dosed NOD/SCID mouse assessed as reduction in tumor growth administered at 3 days interval for 24 days and measured during compound dosing by caliper method; format: functional, organism-based; settings: dose 5-15 mg/kg, time 24.0 day, DDE = dose-dependent effect
MDA-MB-231 [13] = experiment: Inhibition of autophagy in human MDA-MB-231 cells assessed as increase in p62 expression at 5 to 20 uM measured after 48 hrs by Western blot analysis; format: functional, cell-based; settings: dose 5-20 µM, DDE = dose-dependent effect
MDA-MB-231 [14] = experiment: Inhibition of autophagic flux in human MDA-MB-231 cells assessed as increase in nuclear p62 expression measured after 48 hrs by immunofluorescence analysis; format: functional, cell-based; settings: dose 5-20 µM, DDE = dose-dependent effect
MDA-MB-231 [15] = experiment: Antiproliferative activity against human MDA-MB-231 cells assessed as cell growth inhibition measured after 48 hrs by MTT assay; format: functional, cell-based; settings: MDA-MB-231, 48 h
Nibrin (Homo sapiens) [16] = target: T1, Nibrin (Homo sapiens); experiment: Activation of NBS1 phosphorylation in human MDA-MB-468 cells at 5 to 20 uM measured after 6 to 48 hrs by Western blot analysis; format: cell-based; settings: filed as activator, dose 5-20 µM, time 6-48 hrs
MDA-MB-468 [17] = experiment: Cell cycle arrest in human MDA-MB-468 cells assessed as reduction in CDK1 expression measured after 48 hrs by Western blot analysis; format: functional, cell-based; settings: dose 5-20 µM, DDE = dose-dependent effect
MDA-MB-468 [18] = experiment: Induction of apoptosis in human MDA-MB-468 cells assessed as reduction in Bcl-2 expression measured after 48 hrs by Western blot analysis; format: functional, cell-based; settings: dose 5-20 µM, DDE = dose-dependent effect
MDA-MB-468 [19] = experiment: Induction of apoptosis in human MDA-MB-468 cells assessed as increase in cleaved PARP expression measured after 48 hrs by Western blot analysis; format: functional, cell-based; settings: dose 5-20 µM, DDE = dose-dependent effect
MDA-MB-468 [20] = experiment: Inhibition of colony formation in human MDA-MB-468 cells at 5 to 20 umol/l pretreated for 48 hrs followed by replacement of fresh medium and measured after 15 days by crystal violet staining based assay; format: functional, cell-based; settings: dose 5-20 µmol/L
MDA-MB-468 [21] = experiment: Cell cycle arrest in human MDA-MB-468 cells assessed as increase in p21 expression measured after 48 hrs by Western blot analysis; format: functional, cell-based; settings: dose 5-20 µM, DDE = dose-dependent effect
MDA-MB-468 [22] = experiment: Induction of DNA damage in human MDA-MB-468 cells assessed as reduction in BRCA2 expression measured after 6 to 48 hrs by Western blot analysis; format: functional, cell-based; settings: dose 5-20 µM, time 6-48 hrs, DDE = dose-dependent effect
MDA-MB-231 [23] = experiment: Cell cycle arrest in human MDA-MB-231 cells assessed as reduction in cyclin B expression measured after 48 hrs by Western blot analysis; format: functional, cell-based; settings: dose 5-20 µM, DDE = dose-dependent effect
HCT-116 = experiment: Antiproliferative activity against human HCT-116 cells assessed as cell growth inhibition measured after 48 hrs by MTT assay; format: functional, cell-based; settings: HCT-116, 48 h

O=C(NC1CCCCC1)c1[nH]cnc1-c1nc2ccccc2[nH]1
inhibition (MDA-MB-231 [1]): Active
Activity (Nibrin (Homo sapiens) [2]): Active
Activity (MDA-MB-468 [3]): Dde
Activity (MDA-MB-231 [4]): Dde
Activity (MDA-MB-468 [5]): 50%
Activity (MDA-MB-231 [6]): Dde
Activity (MDA-MB-231 [7]): Dde
Activity (MDA-MB-468 [8]): Dde
Activity (MDA-MB-231 [9]): Active
Activity (MDA-MB-468 [10]): Active
Activity (MDA-MB-468 [11]): Dde
TGI (MDA-MB-231 [12]): Dde
inhibition (MDA-MB-231 [13]): Dde
inhibition (MDA-MB-231 [14]): Dde
IC50 (MDA-MB-231 [15]): 8.3 µM
Activity (Nibrin (Homo sapiens) [16]): Active
Activity (MDA-MB-468 [17]): Dde
Activity (MDA-MB-468 [18]): Dde
Activity (MDA-MB-468 [19]): Dde
inhibition (MDA-MB-468 [20]): Active
Activity (MDA-MB-468 [21]): Dde
Activity (MDA-MB-468 [22]): Dde
Activity (MDA-MB-231 [23]): Dde
IC50 (HCT-116): 35.5 µM
